Values after ≈ are worked out from the molar mass of the structure shown. Read-outs that look alike come from different tables or passages of the source.
Assays:
[1] = molecular target: OXA-23 (Acinetobacter baumannii, UniProt Q9L4P2); experiment: In vitro SBL inhibition assay (nitrocefin hydrolysis), IC50; format: biochemical; conditions: 10 min preincubation, 30°C, read-out: Enzyme IC50
Procedure: (§1) Nitrocefin (Sigma-Aldrich, St Louis, MO, USA), a chromogenic cephalosporin antibiotic (λ, 482 nm; εM, 15,000 M^−1.cm^−1), was used as a reporter substrate at 100 µM for KPC-2, OXA-23, and OXA-48, at 200 µM for OXA-24 and OXA-51, and at 50 µM for OXA-58. Enzymes were preincubated in the presence of varying concentrations of each compound (0.006 to 3000 nM, diluted twofold in dimethyl sulfoxide (DMSO) for KPC-2, OXA-23, and OXA-48 assays and 0.51 to 10,000 nM diluted threefold in DMSO for OXA-24, OXA-51, and OXA-58) for 10 min at 30°C. Nitrocefin was then added and its hydrolysis by the uninhibited enzyme fraction was followed at an absorbance wavelength of 482 nm for 10 min at 30°C using Envision UV fluorescence plate reader (Perkin Elmer, Waltham, MA, USA). Hydrolysis rate data were used to determine inhibitory activities, expressed in IC50 values [corresponding to the compound concentration (µM) required to inhibit 50% of enzymatic reaction].

[2] = molecular target: OXA-24/40 (Acinetobacter baumannii, UniProt Q8RLA6); experiment: as above; format: biochemical; conditions: 10 min preincubation, 30°C, read-out: Enzyme IC50
Chain of OXA-24/40 (Q8RLA6 22-275): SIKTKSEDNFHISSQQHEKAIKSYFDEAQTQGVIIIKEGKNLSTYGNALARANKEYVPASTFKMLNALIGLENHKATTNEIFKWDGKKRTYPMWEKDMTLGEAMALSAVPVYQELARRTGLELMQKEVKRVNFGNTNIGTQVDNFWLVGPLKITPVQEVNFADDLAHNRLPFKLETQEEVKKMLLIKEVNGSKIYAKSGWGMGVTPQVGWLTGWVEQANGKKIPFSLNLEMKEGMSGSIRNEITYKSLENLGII
Procedure: as §1

[3] = molecular target: OXA-51 (Acinetobacter baumannii, UniProt Q5QT35); experiment: as above; format: biochemical, A. baumannii; conditions: 10 min preincubation, 30°C, read-out: Enzyme IC50
Chain of OXA-51 (Q5QT35 entry or part of it): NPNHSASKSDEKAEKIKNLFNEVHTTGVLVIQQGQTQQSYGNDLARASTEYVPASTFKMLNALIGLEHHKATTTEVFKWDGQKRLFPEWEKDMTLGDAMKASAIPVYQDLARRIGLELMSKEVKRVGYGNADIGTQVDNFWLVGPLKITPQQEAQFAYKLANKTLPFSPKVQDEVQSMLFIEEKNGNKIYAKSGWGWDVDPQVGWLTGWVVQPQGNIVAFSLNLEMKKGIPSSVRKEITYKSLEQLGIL
Procedure: as §1

[4] = molecular target: OXA-58 (Acinetobacter baumannii, UniProt Q2TR58); experiment: as above; format: biochemical, A. baumannii
Chain of OXA-58 (Q2TR58 19-280): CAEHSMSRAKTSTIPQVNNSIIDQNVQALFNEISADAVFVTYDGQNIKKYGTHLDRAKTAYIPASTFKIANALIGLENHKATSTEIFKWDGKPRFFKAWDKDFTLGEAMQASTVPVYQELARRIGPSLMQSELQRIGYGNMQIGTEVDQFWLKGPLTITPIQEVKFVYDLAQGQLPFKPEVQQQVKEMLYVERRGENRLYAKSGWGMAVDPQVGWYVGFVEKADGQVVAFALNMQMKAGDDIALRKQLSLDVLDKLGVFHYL
Procedure: as §1

[5] = test system: Enterobacterales, P. aeruginosa and A. baumannii clinical isolates; experiment: Intrinsic antibacterial activity of ANT3310 alone, all 1,207 isolates; format: cell-based
Procedure: (§2) All isolates were randomly selected from the frozen culture collection of IHMA collected in 2018 and 2019. Matrix-assisted laser desorption ionization-time of flight mass spectrometry was used to confirm the identity of the organisms tested (Bruker Daltonics, Bremen, Germany).
(§3) MICs for all antimicrobial agents were determined at IHMA by broth microdilution in accordance with both CLSI ([17]) and EUCAST ([18]) guidelines. Microtiter panels were prepared by IHMA and stored at −70°C in cation-adjusted Mueller Hinton broth (CAMHB) (Becton Dickinson). Iron-depleted CAMHB was used to test cefiderocol. Panels containing ANT3310 were prepared fresh on the day of testing. […] MIC values corresponded to the first well with no visible growth. Quality control testing was performed on each day of testing with E. coli ATCC 25922, P. aeruginosa ATCC 27853, K. pneumoniae ATCC 700603 and BAA 1705, and A. baumannii NCTC 13304. MICs were interpreted using 2023 CLSI ([17]) and EUCAST ([18]) BPs.

[6] = molecular target: KPC-2 (Klebsiella pneumoniae, UniProt Q9F663); experiment: In vitro SBL inhibition assay (nitrocefin hydrolysis), IC50; format: biochemical
Chain of KPC-2 (Q9F663 25-293 limits assumed): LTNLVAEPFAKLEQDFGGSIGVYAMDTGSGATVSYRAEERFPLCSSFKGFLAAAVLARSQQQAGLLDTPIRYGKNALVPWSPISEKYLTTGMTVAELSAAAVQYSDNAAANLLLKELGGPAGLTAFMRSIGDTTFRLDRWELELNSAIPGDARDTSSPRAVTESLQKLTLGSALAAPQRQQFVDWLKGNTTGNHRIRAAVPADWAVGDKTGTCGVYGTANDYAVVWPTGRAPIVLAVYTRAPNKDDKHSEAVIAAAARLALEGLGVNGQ
Procedure: as §1

[7] = molecular target: OXA-48 (Klebsiella pneumoniae, UniProt Q6XEC0); experiment: as above; format: biochemical; conditions: 10 min preincubation, 30°C, read-out: Enzyme IC50
Chain of OXA-48 (Q6XEC0 23-265, looked up, species assumed): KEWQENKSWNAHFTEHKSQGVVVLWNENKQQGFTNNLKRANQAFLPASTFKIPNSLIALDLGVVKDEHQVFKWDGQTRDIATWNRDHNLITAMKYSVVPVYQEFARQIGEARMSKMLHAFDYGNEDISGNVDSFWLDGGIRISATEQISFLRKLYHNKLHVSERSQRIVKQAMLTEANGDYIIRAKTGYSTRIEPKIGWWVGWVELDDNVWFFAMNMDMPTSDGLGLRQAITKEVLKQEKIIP
Procedure: as §1

[8] = test system: A. baumannii clinical isolates; experiment: Broth microdilution MIC, A. baumannii clinical isolates; format: cell-based, Acinetobacter baumannii; conditions: for MIC50: read-out: MIC50
Procedure: as §2, §3

[9] = test system: OXA- or KPC-Enterobacterales clinical isolates; experiment: Broth microdilution MIC, OXA- or KPC-positive Enterobacterales; format: cell-based
Procedure: as §2, §3

[10] = test system: P. aeruginosa clinical isolates; experiment: Broth microdilution MIC, P. aeruginosa clinical isolates; format: cell-based, Pseudomonas aeruginosa; conditions: ANT3310 alone, P. aeruginosa N 502
Procedure: as §2, §3

[11] = test system: carbapenem-resistant Acinetobacter baumannii (CRAB) clinical isolates; experiment: Broth microdilution MIC, CRAB isolates; format: cell-based; conditions: 2018 Global collection, CRAB (MEM MICs >4 µg/mL), N 363
Procedure: as §2, §3

[12] = test system: OXA-producing Enterobacterales (OXA-CRE); experiment: organism not typed; format: cell-based
Procedure: as §2, §3

[13] = test system: KPC-producing Enterobacterales (KPC-CRE); experiment: organism not typed; format: cell-based
Procedure: as §2, §3

[14] = test system: A. baumannii ACC00445 (OXA-23); experiment: MIC against the isolate used in the infection models; format: cell-based; conditions: Acinetobacter baumannii
Procedure: as §3

[15] = ANT3310 alone, A. baumannii N 405
[16] = ANT3310 alone, OXA- or KPC-Enterobacterales N 300
[17] = 2018 Global collection, All A. baumannii, N 500

Chain of OXA-23 (Q9L4P2 18-273): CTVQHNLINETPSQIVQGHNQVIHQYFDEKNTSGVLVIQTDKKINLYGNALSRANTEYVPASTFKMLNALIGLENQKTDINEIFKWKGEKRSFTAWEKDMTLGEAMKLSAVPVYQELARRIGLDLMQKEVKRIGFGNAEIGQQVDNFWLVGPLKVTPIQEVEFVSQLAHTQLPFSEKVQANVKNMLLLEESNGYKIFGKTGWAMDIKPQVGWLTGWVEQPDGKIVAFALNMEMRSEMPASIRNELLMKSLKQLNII

Q: How did the IC50 [1] turn out when O=C(NC1CCNCC1)[C@@H]1CC[C@@H]2CN1C(=O)N2OS(=O)(=O)O (relative stereo) [Rel, relebactam] was run?
A: > 3000 nM

Q: And the IC50 [2]?
A: > 10000 nM

Q: What about the IC50 [3] of the same compound?
A: > 10000 nM

Q: And the IC50 [4]?
A: > 10000 nM

Q: With O=C1N2C[C@@H](CC[C@H]2F)N1OS(=O)(=O)O [ANT3310] as the compound, how does the Intrinsic antibacterial activity ([5]; ANT3310 alone, 1,207 isolates) read?
A: No clinically significant antibacterial activity

Q: What about the “Number of isolates with ANT3310 MICs ≤8 µg/mL” value ([5]; of the 1,207 isolates tested, ANT3310 alone) of the same compound?
A: 6

Q: What about the IC50 [6] of the same compound?
A: 19.5 nM

Q: What about the IC50 [7] of the same compound?
A: 179 nM

Q: And the IC50 [1]?
A: 32.6 nM

Q: What about the IC50 [2] of the same compound?
A: 602 nM

Q: And the IC50 [3]?
A: 542 nM

Q: And the IC50 [4]?
A: 8 nM

Q: And the MIC90 [8, 15]?
A: >64 µg/mL

Q: And the “Number of isolates inhibited at MIC of 4 µg/mL” value [8, 15]?
A: 1

Q: What about the “Number of isolates inhibited at MIC of 8 µg/mL” value [8, 15] of the same compound?
A: 4

Q: And the “Number of isolates inhibited at MIC of 16 µg/mL” value [8, 15]?
A: 1

Q: What about the “Number of isolates inhibited at MIC of 32 µg/mL” value [8, 15] of the same compound?
A: 11

Q: What about the “Number of isolates inhibited at MIC of 64 µg/mL” value [8, 15] of the same compound?
A: 38

Q: What about the “Number of isolates inhibited at MIC of >64 µg/mL” value [8, 15] of the same compound?
A: 350

Q: And the MIC50 ([8]; Acinetobacter baumannii, ANT3310 alone, A. baumannii N 405)?
A: 64 µg/mL (≈ 266 µM)

Q: And the MIC90 ([8]; Acinetobacter baumannii, ANT3310 alone, A. baumannii N 405, read-out: MIC90)?
A: > 64 µg/mL

Q: And the MIC50 [9]?
A: > 64 µg/mL

Q: And the MIC90 [9]?
A: > 64 µg/mL

Q: What about the MIC50 [9, 16] of the same compound?
A: >64 µg/mL

Q: And the MIC90 [9, 16]?
A: >64 µg/mL

Q: What about the “Number of isolates inhibited at MIC of 8 µg/mL” value [9, 16] of the same compound?
A: 1

Q: What about the “Number of isolates inhibited at MIC of 32 µg/mL” value [9, 16] of the same compound?
A: 8

Q: And the “Number of isolates inhibited at MIC of 64 µg/mL” value [9, 16]?
A: 234

Q: And the “Number of isolates inhibited at MIC of >64 µg/mL” value [9, 16]?
A: 57

Q: And the MIC50 [10]?
A: >64 µg/mL

Q: What about the MIC90 [10] of the same compound?
A: >64 µg/mL

Q: And the “Number of isolates inhibited at MIC of 16 µg/mL” value [10]?
A: 2

Q: What about the “Number of isolates inhibited at MIC of 32 µg/mL” value [10] of the same compound?
A: 9

Q: And the “Number of isolates inhibited at MIC of 64 µg/mL” value [10]?
A: 15

Q: What about the “Number of isolates inhibited at MIC of >64 µg/mL” value [10] of the same compound?
A: 476

Q: What about the MIC50 ([10]; Pseudomonas aeruginosa, read-out: MIC50) of the same compound?
A: > 64 µg/mL

Q: What about the MIC90 ([10]; Pseudomonas aeruginosa, read-out: MIC90) of the same compound?
A: > 64 µg/mL

Q: Which IC50 [6] does the source give for CC1=C[C@@H]2CN(C(=O)N2OS(=O)(=O)O)[C@@H]1C(N)=O [Dur, durlobactam] here?
A: 5.3 nM

Q: And the IC50 [7]?
A: 3.4 nM

Q: And the IC50 [1]?
A: 347 nM

Q: What about the IC50 [2] of the same compound?
A: 208 nM

Q: And the IC50 [3]?
A: 4300 nM

Q: And the IC50 [4]?
A: 11 nM

Q: Which results are given for NCCONC(=O)[C@@H]1CC[C@@H]2CN1C(=O)N2OS(=O)(=O)O [Nac, nacubactam]?
A: IC50 [6]: 27.2 nM; IC50 [7]: > 3000 nM; IC50 [1]: > 3000 nM; IC50 [2]: > 10000 nM; IC50 [3]: > 10000 nM; IC50 [4]: > 10000 nM

Q: What does the source list for NCCN[C@H]1CC[C@H](CC(=O)N[C@H]2Cc3cccc(C(=O)O)c3OB2O)CC1 [Tan, taniborbactam]?
A: IC50 [6]: 15.8 nM; IC50 [7]: 1560 nM; IC50 [1]: > 3000 nM; IC50 [2]: > 10000 nM; IC50 [3]: > 10000 nM; IC50 [4]: > 10000 nM

Q: Which results are given for CN(C)c1cc(NC(=O)CNC(C)(C)C)c(O)c2c1C[C@H]1C[C@H]3[C@H](N(C)C)C(O)=C(C(N)=O)C(=O)[C@@]3(O)C(O)=C1C2=O [Tigecycline, tigecycline]?
A: Number of isolates inhibited at MIC of 0.5 µg/mL [11]: 7; Number of isolates inhibited at MIC of 1 µg/mL [11]: 48; Number of isolates inhibited at MIC of 2 µg/mL [11]: 146; Number of isolates inhibited at MIC of 4 µg/mL [11]: 131; Number of isolates inhibited at MIC of 8 µg/mL [11]: 28; Number of isolates inhibited at MIC of 16 µg/mL [11]: 3; MIC50 ([11]; Acinetobacter baumannii, read-out: MIC50): 2 µg/mL (≈ 3.41 µM); MIC90 ([11]; Acinetobacter baumannii, read-out: MIC90): 4 µg/mL (≈ 6.83 µM); MIC50 [12]: 2 µg/mL (≈ 3.41 µM); MIC90 [12]: 4 µg/mL (≈ 6.83 µM); MIC50 [13]: 1 µg/mL (≈ 1.71 µM); MIC90 [13]: 4 µg/mL (≈ 6.83 µM); MIC [14]: 2 µg/mL (≈ 3.41 µM); Number of isolates inhibited at MIC of 0.25 µg/mL [8, 17]: 40; Number of isolates inhibited at MIC of 0.5 µg/mL [8, 17]: 41; Number of isolates inhibited at MIC of 1 µg/mL [8, 17]: 76; Number of isolates inhibited at MIC of 2 µg/mL [8, 17]: 162; Number of isolates inhibited at MIC of 4 µg/mL [8, 17]: 140; Number of isolates inhibited at MIC of 8 µg/mL [8, 17]: 31; Number of isolates inhibited at MIC of 16 µg/mL [8, 17]: 4; Number of isolates inhibited at MIC of ≤0.125 µg/mL [8, 17]: 6; MIC50 ([8]; Acinetobacter baumannii, 2018 Global collection, All A. baumannii, N 500): 2 µg/mL (≈ 3.41 µM); MIC90 ([8]; Acinetobacter baumannii, 2018 Global collection, All A. baumannii, N 500, read-out: MIC90): 4 µg/mL (≈ 6.83 µM); MIC90 ([8]; Acinetobacter baumannii, A. baumannii, one or both of the 2018/2019 collections, read-out: MIC90): 4 µg/mL (≈ 6.83 µM)

Q: With O=C(O)C[C@@H]1CC[C@H](NC(=O)Cc2cccs2)B(O)O1 [Vab, vaborbactam] as the compound, how does the IC50 ([6]; KPC-2, 10 min preincubation, 30°C, read-out: Enzyme IC50) read?
A: 102 nM

Q: And the IC50 [7]?
A: > 3000 nM

Q: What about the IC50 [1] of the same compound?
A: > 3000 nM

Q: What about the IC50 [4] of the same compound?
A: > 10000 nM

Q: For O=C(NNC(=O)[C@@H]1CC[C@@H]2CN1C(=O)N2OS(=O)(=O)O)[C@@H]1CCCNC1 [Zid, zidebactam], which IC50 [6] is on record?
A: 38.9 nM

Q: And the IC50 [1]?
A: > 3000 nM

Q: What about the IC50 [2] of the same compound?
A: > 10000 nM

Q: What about the IC50 [3] of the same compound?
A: > 10000 nM

Q: And the IC50 [4]?
A: > 10000 nM
